Measurements from patent EP4722212A1, “NOVEL COMPOUND FOR INHIBITING PROTEIN KINASES AND PHARMACEUTICAL COMPOSITION COMPRISING SAME” (Magicbullettherapeutics Co., Ltd., priority 2023, dated 2024).
Like-named read-outs stand apart in the source and are kept apart here.

Key:
Assay in all cases: Kinase panel
Type in all cases: biochemical
[1] = molecular target: PKCETA (Homo sapiens, UniProt P24723); conditions: read-out: residual enzyme activity
Method in brief: (§1)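 Residual enzyme activity is given for kinases screened biochemically with compound at a fixed 1 µM. Kinases showing ≤40% residual activity (≥60% inhibition) were identified as inhibited.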

[2] = molecular target: DCAMKL1 (Homo sapiens, UniProt O15075); conditions: DCAMKL1, 1 µM; read-out: residual enzyme activity
Method in brief: as §1

[3] = molecular target: CDK1/CYCLIN A (Homo sapiens, UniProt P06493); conditions: read-out: residual enzyme activity
Method in brief: as §1

[4] = molecular target: CK1G1 (Homo sapiens, UniProt Q9HCP0); conditions: read-out: residual enzyme activity
Method in brief: as §1

[5] = molecular target: MAPKAPK2 (Homo sapiens, UniProt P49137); conditions: MAPKAPK2, 1 µM; read-out: residual enzyme activity
Method in brief: as §1

[6] = molecular target: MSK1/RPS6KA5 (Homo sapiens, UniProt O75582); conditions: MSK1/RPS6KA5, 1 µM; read-out: residual enzyme activity
Method in brief: as §1

[7] = molecular target: AURORA A (Homo sapiens, UniProt O14965); conditions: read-out: residual enzyme activity
Method in brief: as §1

[8] = molecular target: ZIPK/DAPK3 (Homo sapiens, UniProt O43293); conditions: ZIPK/DAPK3, 1 µM; read-out: residual enzyme activity
Method in brief: as §1

[9] = molecular target: BRK (Homo sapiens, UniProt Q13882); conditions: read-out: residual enzyme activity
Method in brief: as §1

[10] = molecular target: PAK4 (Homo sapiens, UniProt O96013); conditions: PAK4, 1 µM; read-out: residual enzyme activity
Method in brief: as §1

[11] = molecular target: DDR2 (Homo sapiens, UniProt Q16832); conditions: DDR2, 1 µM; read-out: residual enzyme activity
Method in brief: as §1

[12] = molecular target: IKKA/CHUK (Homo sapiens, UniProt O15111); conditions: read-out: residual enzyme activity
Method in brief: as §1

[13] = molecular target: ULK1 (Homo sapiens, UniProt O75385); conditions: ULK1, 1 µM; read-out: residual enzyme activity
ULK1, sequence (O75385 whole entry, species assumed): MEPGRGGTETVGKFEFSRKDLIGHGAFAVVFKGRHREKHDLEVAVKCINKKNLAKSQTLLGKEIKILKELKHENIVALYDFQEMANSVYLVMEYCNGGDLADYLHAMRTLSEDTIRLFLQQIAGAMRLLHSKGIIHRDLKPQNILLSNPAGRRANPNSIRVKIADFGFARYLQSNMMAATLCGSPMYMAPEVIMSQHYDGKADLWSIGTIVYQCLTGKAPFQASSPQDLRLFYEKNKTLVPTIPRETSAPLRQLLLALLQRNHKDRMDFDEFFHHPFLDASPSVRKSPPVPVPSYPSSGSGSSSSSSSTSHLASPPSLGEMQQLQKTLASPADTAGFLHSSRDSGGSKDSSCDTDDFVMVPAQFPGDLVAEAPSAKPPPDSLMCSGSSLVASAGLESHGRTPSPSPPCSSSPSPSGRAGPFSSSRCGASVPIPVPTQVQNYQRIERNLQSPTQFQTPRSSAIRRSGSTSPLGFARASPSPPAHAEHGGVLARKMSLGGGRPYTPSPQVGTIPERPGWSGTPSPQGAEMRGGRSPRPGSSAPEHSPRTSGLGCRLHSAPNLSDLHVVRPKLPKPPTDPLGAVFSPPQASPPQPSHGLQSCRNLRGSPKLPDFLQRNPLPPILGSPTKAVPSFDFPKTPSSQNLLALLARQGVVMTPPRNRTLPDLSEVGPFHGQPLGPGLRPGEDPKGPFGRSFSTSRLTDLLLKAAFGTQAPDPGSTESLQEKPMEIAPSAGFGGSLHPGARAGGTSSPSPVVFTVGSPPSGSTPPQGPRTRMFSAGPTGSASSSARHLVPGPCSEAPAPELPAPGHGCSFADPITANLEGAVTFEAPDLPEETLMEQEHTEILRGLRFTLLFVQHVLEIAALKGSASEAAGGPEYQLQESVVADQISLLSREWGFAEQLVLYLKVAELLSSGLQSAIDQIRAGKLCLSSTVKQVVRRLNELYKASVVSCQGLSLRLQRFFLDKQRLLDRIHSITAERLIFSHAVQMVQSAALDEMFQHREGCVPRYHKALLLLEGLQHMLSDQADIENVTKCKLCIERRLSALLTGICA
Method in brief: as §1

[14] = molecular target: CDK18/CYCLIN Y (PCTK3) (Homo sapiens, UniProt Q07002); conditions: read-out: residual enzyme activity
Method in brief: as §1

[15] = molecular target: MLK3/MAP3K11 (Homo sapiens, UniProt Q16584); conditions: MLK3/MAP3K11, 1 µM; read-out: residual enzyme activity
MLK3/MAP3K11, sequence (Q16584 whole entry): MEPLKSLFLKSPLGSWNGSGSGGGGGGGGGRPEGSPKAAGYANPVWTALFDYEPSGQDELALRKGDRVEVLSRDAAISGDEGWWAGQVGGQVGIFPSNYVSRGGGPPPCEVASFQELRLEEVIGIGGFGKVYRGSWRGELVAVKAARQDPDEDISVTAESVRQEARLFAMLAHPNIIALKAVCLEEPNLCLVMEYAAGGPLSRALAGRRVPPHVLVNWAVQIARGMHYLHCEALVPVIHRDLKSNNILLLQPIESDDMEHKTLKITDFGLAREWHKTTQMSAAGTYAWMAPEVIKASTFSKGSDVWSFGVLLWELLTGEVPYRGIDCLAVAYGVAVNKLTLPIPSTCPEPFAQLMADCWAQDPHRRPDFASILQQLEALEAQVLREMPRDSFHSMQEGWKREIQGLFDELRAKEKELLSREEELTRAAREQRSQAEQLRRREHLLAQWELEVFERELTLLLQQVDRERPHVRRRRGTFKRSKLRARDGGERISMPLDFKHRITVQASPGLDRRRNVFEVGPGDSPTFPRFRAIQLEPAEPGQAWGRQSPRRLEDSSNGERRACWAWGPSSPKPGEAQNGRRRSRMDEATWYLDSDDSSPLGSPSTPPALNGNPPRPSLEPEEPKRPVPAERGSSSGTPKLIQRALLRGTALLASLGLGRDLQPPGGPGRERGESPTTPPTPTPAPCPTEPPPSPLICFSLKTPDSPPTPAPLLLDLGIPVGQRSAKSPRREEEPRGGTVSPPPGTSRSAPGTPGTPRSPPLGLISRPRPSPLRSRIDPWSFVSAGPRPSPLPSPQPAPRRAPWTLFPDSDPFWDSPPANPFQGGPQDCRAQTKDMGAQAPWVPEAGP
Method in brief: as §1

[16] = molecular target: MARK3 (Homo sapiens, UniProt P27448); conditions: MARK3, 1 µM; read-out: residual enzyme activity
Method in brief: as §1

[17] = molecular target: MARK2/PAR-IBA (Homo sapiens, UniProt Q7KZI7); conditions: read-out: residual enzyme activity
Method in brief: as §1

[18] = molecular target: FER (Homo sapiens, UniProt P16591); conditions: read-out: residual enzyme activity
Method in brief: as §1

[19] = molecular target: FLT1/VEGFR1 (Homo sapiens, UniProt P17948); conditions: FLT1/VEGFR1, 1 µM; read-out: residual enzyme activity
Method in brief: as §1

[20] = molecular target: FYN (Homo sapiens, UniProt P06241); conditions: read-out: residual enzyme activity
Method in brief: as §1

[21] = molecular target: STK22D/TSSK1 (Homo sapiens, UniProt Q9BXA7); conditions: STK22D/TSSK1, 1 µM; read-out: residual enzyme activity
Method in brief: as §1

[22] = molecular target: RAF1 (Homo sapiens, UniProt P04049); conditions: RAF1, 1 µM; read-out: residual enzyme activity
Method in brief: as §1

[23] = molecular target: MAPKAPK3 (Homo sapiens, UniProt Q16644); conditions: MAPKAPK3, 1 µM; read-out: residual enzyme activity
Method in brief: as §1

[24] = molecular target: MYLK3 (Homo sapiens, UniProt Q32MK0); conditions: MYLK3, 1 µM; read-out: residual enzyme activity
Method in brief: as §1

[25] = molecular target: GRK4 (Homo sapiens, UniProt P32298); conditions: GRK4, 1 µM; read-out: residual enzyme activity
Method in brief: as §1

[26] = molecular target: BRAF (Homo sapiens, UniProt P15056); conditions: read-out: residual enzyme activity
BRAF, sequence (P15056 whole entry, species assumed): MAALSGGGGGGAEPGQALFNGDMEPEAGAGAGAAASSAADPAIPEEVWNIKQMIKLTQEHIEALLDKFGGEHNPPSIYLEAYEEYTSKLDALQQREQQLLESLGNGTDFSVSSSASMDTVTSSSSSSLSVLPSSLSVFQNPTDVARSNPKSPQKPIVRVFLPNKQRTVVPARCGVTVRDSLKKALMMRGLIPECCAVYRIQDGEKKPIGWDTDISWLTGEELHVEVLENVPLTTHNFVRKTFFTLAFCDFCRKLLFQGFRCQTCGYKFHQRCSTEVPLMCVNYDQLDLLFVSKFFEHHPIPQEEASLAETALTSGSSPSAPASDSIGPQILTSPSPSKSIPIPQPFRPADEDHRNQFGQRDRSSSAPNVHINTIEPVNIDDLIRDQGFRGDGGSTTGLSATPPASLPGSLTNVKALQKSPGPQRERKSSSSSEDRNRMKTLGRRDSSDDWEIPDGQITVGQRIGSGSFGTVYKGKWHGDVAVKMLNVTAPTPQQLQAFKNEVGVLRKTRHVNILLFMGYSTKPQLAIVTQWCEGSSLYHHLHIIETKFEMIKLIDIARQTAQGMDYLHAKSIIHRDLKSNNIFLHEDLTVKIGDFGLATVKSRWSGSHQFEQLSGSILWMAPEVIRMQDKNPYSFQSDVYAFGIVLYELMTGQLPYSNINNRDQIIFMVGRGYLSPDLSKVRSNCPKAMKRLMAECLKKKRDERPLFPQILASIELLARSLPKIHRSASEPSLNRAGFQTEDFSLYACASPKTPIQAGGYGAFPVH
Method in brief: as §1

[27] = molecular target: BMPR2 (Homo sapiens, UniProt Q13873); conditions: BMPR2, 1 µM; read-out: residual enzyme activity
BMPR2, sequence (Q13873 27-1038): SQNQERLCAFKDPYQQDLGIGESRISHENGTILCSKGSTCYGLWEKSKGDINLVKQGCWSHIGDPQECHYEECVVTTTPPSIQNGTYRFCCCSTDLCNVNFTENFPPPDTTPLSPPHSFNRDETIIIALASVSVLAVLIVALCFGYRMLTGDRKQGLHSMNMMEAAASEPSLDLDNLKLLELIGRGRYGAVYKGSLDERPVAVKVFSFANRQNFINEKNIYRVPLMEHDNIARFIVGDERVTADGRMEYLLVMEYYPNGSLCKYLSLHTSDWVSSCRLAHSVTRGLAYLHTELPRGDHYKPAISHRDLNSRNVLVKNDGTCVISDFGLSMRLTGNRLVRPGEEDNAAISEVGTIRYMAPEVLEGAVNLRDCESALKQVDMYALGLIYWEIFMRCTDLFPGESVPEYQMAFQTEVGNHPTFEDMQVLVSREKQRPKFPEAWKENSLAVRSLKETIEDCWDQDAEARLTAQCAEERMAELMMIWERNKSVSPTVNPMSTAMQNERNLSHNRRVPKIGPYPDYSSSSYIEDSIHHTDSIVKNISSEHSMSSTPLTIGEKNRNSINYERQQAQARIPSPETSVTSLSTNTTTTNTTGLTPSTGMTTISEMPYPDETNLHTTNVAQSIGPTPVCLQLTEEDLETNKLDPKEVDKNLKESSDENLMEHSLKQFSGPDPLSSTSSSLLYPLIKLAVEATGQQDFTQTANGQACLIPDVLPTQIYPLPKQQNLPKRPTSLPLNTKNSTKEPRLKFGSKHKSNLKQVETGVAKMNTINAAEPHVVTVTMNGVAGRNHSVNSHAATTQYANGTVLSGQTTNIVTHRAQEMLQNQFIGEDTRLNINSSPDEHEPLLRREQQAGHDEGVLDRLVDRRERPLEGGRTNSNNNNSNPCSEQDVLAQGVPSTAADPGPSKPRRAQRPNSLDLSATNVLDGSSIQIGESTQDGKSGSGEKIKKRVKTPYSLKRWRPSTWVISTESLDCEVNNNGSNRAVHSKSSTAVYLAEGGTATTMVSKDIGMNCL
Method in brief: as §1

[28] = molecular target: RIPK2 (Homo sapiens, UniProt O43353); conditions: RIPK2, 1 µM; read-out: residual enzyme activity
Method in brief: as §1

[29] = molecular target: MKK7 (Homo sapiens, UniProt O14733); conditions: MKK7, 1 µM; read-out: residual enzyme activity
MKK7, sequence (O14733 whole entry, species assumed): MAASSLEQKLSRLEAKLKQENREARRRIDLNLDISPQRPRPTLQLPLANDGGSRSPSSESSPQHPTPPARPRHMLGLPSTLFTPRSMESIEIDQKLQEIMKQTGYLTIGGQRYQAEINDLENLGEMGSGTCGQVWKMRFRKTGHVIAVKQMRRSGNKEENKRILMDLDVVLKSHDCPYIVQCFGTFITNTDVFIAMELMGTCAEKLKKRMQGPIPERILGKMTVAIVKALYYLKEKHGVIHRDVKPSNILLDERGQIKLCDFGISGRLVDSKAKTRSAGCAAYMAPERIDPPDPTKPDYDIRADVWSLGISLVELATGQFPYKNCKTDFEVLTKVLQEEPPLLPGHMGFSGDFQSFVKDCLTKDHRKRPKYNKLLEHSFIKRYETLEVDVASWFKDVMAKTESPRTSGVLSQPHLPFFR
Method in brief: as §1

[30] = molecular target: NEK3 (Homo sapiens, UniProt P51956); conditions: NEK3, 1 µM; read-out: residual enzyme activity
Method in brief: as §1

[31] = molecular target: LKB1 (Homo sapiens, UniProt Q15831); conditions: LKB1, 1 µM; read-out: residual enzyme activity
Method in brief: as §1

[32] = molecular target: EPHA3 (Homo sapiens, UniProt P29320); conditions: EPHA3, 1 µM; read-out: residual enzyme activity
EPHA3, sequence (P29320 21-983, species assumed): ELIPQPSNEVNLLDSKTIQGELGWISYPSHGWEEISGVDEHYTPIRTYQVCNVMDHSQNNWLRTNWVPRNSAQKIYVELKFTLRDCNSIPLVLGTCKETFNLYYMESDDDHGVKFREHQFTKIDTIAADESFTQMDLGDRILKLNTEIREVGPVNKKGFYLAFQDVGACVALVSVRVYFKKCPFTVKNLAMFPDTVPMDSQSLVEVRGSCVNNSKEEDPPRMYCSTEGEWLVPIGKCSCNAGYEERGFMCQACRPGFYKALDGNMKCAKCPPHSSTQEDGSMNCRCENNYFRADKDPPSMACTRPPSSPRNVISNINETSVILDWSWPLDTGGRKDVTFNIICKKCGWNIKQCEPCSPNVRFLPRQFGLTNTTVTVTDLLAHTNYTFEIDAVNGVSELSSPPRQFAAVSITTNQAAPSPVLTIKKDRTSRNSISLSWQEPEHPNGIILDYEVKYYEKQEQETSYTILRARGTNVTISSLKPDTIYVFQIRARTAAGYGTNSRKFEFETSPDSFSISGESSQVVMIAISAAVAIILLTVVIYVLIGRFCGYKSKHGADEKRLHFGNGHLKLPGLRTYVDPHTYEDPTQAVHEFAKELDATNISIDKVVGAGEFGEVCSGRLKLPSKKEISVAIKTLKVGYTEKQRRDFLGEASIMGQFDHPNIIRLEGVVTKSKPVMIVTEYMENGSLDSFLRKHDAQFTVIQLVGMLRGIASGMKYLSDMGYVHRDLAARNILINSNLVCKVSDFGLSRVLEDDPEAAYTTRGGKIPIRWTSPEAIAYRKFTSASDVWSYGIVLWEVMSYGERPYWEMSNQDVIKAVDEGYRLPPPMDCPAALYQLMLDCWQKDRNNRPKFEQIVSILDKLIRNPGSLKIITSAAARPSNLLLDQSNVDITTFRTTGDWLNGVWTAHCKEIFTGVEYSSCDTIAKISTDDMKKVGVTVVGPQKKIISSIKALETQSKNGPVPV
Method in brief: as §1

[33] = molecular target: TRKB (Homo sapiens, UniProt Q16620); conditions: read-out: residual enzyme activity
Method in brief: as §1

SMILES	remaining activity at 1 µM [1]	remaining activity at 1 µM [2]	remaining activity at 1 µM [3]	remaining activity at 1 µM [5]	remaining activity at 1 µM [6]	remaining activity at 1 µM [7]	remaining activity at 1 µM [8]	remaining activity at 1 µM [9]	remaining activity at 1 µM [10]	remaining activity at 1 µM [11]	remaining activity at 1 µM [12]	remaining activity at 1 µM [13]	remaining activity at 1 µM [14]	remaining activity at 1 µM [15]	remaining activity at 1 µM [16]	remaining activity at 1 µM [18]	remaining activity at 1 µM [19]	remaining activity at 1 µM [20]	remaining activity at 1 µM [21]	remaining activity at 1 µM [22]	other results
Cc1cn(-c2cc(C(=O)Nc3ccc(C)c(N4Cc5cnc(NC6CC6)nc5C5(CC5)C4=O)c3)cc(C(F)(F)F)c2)cn1 [Compound 8, N-(3-(2'-(cyclopropylamino)-7'-oxo-5'H-spiro[cyclopropane-1,8'-pyrido[4,3-d]pyrimidine]-6'(7'H)-yl)-4-methylphenyl)-3-(4-methyl-1H-imidazol-1-yl)-5-(trifluoromethyl)benzamide]	> 40%	> 40%	> 40%	> 40%	> 40%	> 40%	> 40%	≤ 40%	> 40%	≤ 40%	> 40%	> 40%	> 40%	≤ 40%	> 40%	≤ 40%	≤ 40%	≤ 40%	> 40%	≤ 40%	remaining activity at 1 µM ([4]; CK1G1, 1 µM): > 40%; remaining activity at 1 µM ([17]; MARK2/PAR-IBA): > 40%; remaining activity at 1 µM [23]: > 40%; remaining activity at 1 µM [24]: > 40%; remaining activity at 1 µM [25]: > 40%; remaining activity at 1 µM [26]: ≤ 40%; remaining activity at 1 µM [27]: > 40%; remaining activity at 1 µM [28]: > 40%; remaining activity at 1 µM [29]: > 40%; remaining activity at 1 µM [30]: > 40%; remaining activity at 1 µM [31]: > 40%; remaining activity at 1 µM [32]: ≤ 40%; remaining activity at 1 µM [33]: ≤ 40%
Cc1ccc(Nc2ncc3c(n2)C2(CC2)C(=O)N(c2cc(NC(=O)c4cccc(C(F)(F)F)c4)ccc2C)C3)cn1 [Compound 51, N-(4-methyl-3-(2'-((6-methylpyridin-3-yl)amino)-7'-oxo-5'H-spiro[cyclopropane-1,8'-pyrido[4,3-d]pyrimidine]-6'(7'H)-yl)phenyl)-3-(trifluoromethyl)benzamide]	> 40%	> 40%	> 40%	> 40%	> 40%	> 40%	> 40%	≤ 40%	> 40%	≤ 40%	> 40%	> 40%	> 40%	≤ 40%	> 40%	≤ 40%	≤ 40%	≤ 40%	> 40%	≤ 40%	remaining activity at 1 µM ([4]; CK1g1, 1 µM): > 40%; remaining activity at 1 µM ([17]; MARK2/PAR-IBa): > 40%; remaining activity at 1 µM [23]: > 40%; remaining activity at 1 µM [24]: > 40%; remaining activity at 1 µM [25]: > 40%; remaining activity at 1 µM [26]: ≤ 40%; remaining activity at 1 µM [27]: > 40%; remaining activity at 1 µM [28]: > 40%; remaining activity at 1 µM [29]: > 40%; remaining activity at 1 µM [30]: > 40%; remaining activity at 1 µM [31]: > 40%; remaining activity at 1 µM [32]: ≤ 40%; remaining activity at 1 µM [33]: ≤ 40%
